Source: US12365655B2, “Compounds” (CTXT PTY LTD, priority 2018, dated 2025)

Assays:
TIP60-KAT5 = TIP60-KAT5 (Homo sapiens, UniProt Q92993); assay: Acetyltransferase biochemical assay (AlphaScreen), KAT5
HBO-KAT7 = HBO-KAT7 (Homo sapiens, UniProt O95251); assay: Acetyltransferase biochemical assay (AlphaScreen), KAT7
MOZ-KAT6A = MOZ-KAT6A (Homo sapiens, UniProt Q92794, A567V); assay: Acetyltransferase biochemical assay (AlphaScreen), KAT6A
Chain of MOZ-KAT6A (Q92794 with tags, fused parts or gaps A567V): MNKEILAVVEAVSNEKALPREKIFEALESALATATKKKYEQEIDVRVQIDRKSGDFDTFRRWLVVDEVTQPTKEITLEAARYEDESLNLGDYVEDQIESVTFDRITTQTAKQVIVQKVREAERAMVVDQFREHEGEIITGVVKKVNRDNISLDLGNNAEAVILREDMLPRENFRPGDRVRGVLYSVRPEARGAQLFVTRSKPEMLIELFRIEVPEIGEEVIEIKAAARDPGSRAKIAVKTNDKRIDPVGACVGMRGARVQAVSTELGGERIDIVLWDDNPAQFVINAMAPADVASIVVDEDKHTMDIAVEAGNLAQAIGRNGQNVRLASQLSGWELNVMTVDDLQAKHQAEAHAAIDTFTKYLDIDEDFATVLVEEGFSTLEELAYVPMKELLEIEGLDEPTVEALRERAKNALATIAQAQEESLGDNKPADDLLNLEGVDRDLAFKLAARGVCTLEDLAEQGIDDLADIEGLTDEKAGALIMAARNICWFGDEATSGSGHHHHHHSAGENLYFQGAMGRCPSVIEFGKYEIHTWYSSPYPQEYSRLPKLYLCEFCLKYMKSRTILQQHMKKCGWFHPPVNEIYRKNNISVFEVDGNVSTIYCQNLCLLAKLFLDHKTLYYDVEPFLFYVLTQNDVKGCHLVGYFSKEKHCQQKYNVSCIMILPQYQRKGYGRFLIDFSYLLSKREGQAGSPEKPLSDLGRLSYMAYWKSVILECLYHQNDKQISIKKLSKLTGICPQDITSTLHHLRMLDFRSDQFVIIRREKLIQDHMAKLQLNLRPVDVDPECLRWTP

Chain of TIP60-KAT5 (Q92993 with tags, fused parts or gaps isoform Q92993-2): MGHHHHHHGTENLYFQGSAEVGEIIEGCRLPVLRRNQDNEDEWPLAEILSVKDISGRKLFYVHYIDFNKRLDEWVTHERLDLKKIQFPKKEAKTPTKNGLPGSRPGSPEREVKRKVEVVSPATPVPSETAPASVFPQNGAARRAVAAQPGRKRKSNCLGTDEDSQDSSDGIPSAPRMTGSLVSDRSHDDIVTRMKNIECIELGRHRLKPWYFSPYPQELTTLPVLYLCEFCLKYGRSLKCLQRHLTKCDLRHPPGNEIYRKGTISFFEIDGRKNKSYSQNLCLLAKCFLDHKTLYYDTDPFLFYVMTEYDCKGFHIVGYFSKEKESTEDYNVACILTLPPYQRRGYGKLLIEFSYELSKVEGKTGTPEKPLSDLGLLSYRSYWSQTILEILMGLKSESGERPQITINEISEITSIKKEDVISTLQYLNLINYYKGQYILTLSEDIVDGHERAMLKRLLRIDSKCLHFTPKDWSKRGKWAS
Chain of HBO-KAT7 (O95251 with tags, fused parts or gaps): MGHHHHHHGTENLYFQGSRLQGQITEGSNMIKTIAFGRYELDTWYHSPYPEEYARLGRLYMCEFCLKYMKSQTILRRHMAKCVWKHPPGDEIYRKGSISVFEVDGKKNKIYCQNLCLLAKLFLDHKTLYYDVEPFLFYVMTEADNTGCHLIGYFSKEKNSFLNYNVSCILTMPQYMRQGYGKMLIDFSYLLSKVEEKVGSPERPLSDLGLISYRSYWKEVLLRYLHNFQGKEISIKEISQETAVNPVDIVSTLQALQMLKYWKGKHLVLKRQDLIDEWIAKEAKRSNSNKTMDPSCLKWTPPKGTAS

SMILES	IC50 (TIP60-KAT5)	IC50 (HBO-KAT7)	IC50 (MOZ-KAT6A)
O=S(=O)(Nc1noc2ccccc12)c1cccc(Cl)c1Cl [Example 60, N-(benzo[d]isoxazol-3-yl)-2,3-dichlorobenzene-sulfonamide]	> 125 µM	> 125 µM	116 µM
COCc1cc(OC)c2c(NS(=O)(=O)c3c(OC)cccc3OC)noc2c1I [Example 160]	46.2 µM	1.58 µM	1.05 µM
CCc1ccc(OC)c(S(=O)(=O)Nc2noc3ccc(CNC(C)=O)cc23)c1 [Example 228, N-((3-((5-Ethyl-2-methoxyphenyl)sulfonamido)benzo[d]isoxazol-5-yl)methyl)acetamide]	124 µM	> 125 µM	75.2 µM
CCc1ccc(OC)c(S(=O)(=O)Nc2noc3ccc(CO)cc23)c1 [Example 229]	> 125 µM	115 µM	85 µM
COc1ccc(Oc2ccccc2)cc1S(=O)(=O)Nc1noc2cccc(OC)c12 [Example 99, 2-Methoxy-N-(4-methoxybenzo[d]isoxazol-3-yl)-5-phenoxybenzenesulfonamide]	9.7 µM	5.74 µM	2.1 µM
Cn1nc2cccc(S(=O)(=O)Nc3noc4cccc(Cl)c34)c2n1 [Example 6, N-(4-chlorobenzo [d]isoxazol-3-yl)-2-methyl-2H-benzo[d][1,2,3]triazole-4-sulfonamide]	94.9 µM	6.28 µM	30.2 µM
COc1cccc2onc(NS(=O)(=O)c3c(C)ccc4cccnc34)c12 [Example 77, N-(4-methoxybenzo[d]isoxazol-3-yl)-7-methyl quinoline-8-sulfonamide]	51.8 µM	12 µM	10.8 µM
O=S(=O)(Nc1noc2cccc(Cl)c12)c1ccccc1OC(F)F [Example 38, N-(4-chlorobenzo [d]isoxazol-3-yl)-2-(difluoromethoxy) benzenesulfonamide]	80.1 µM	6.7 µM	27.5 µM
O=S(=O)(Nc1noc2cccc(Cl)c12)c1cc(OCC(F)(F)F)ccc1OCC(F)(F)F [Example 10, N-(4-chlorobenzo [d]isoxazol-3-yl)-2,5-bis(2,2,2-trifluoroethoxy) benzenesulfonamide]	93.7 µM	54.1 µM	17.5 µM
O=S(=O)(Nc1noc2cccc(Cl)c12)c1cccc2cccnc12 [Example 123, N-(4-chlorobenzo[d]isoxazol-3-yl)quinoline-8-sulfonamide]	59.4 µM	4.2 µM	26.9 µM
CCc1ccc(OC)c(S(=O)(=O)Nc2noc3cccc(-c4cncnc4)c23)c1 [Example 203, 5-Ethyl-2-methoxy-N-(4-(pyrimidin-5-yl)benzo[d]isoxazol-3-yl)benzenesulfonamide]	74.3 µM	23.4 µM	22.6 µM
Cc1nnc(-c2cccc(S(=O)(=O)Nc3noc4ccccc34)c2)o1 [Example 67, N-(benzo[d]isoxazol-3-yl)-3-(5-methyl-1,3,4-oxadiazol-2-yl)benzene sulfonamide]	115 µM	> 125 µM	22.7 µM
CCc1ccc(OC)c(S(=O)(=O)Nc2noc3ccc(C(=O)N(C)C)cc23)c1 [Example 231, 3-((5-Ethyl-2-methoxyphenyl)sulfonamido)-N,N-dimethylbenzo[d]isoxazole-5-carboxamide]	> 125 µM	> 125 µM	59 µM
O=S(=O)(Nc1noc2cccc(Cl)c12)c1ccccc1F [Example 30, N-(4-chlorobenzo [d]isoxazol-3-yl)-2-fluorobenzenesulfonamide]	> 125 µM	11.5 µM	89.5 µM
COc1cc(C)c(Cl)cc1S(=O)(=O)Nc1noc2ccccc12 [Example 51, N-(benzo[d]isoxazol-3-yl)-5-chloro-2-methoxy-4-methylbenzene sulfonamide]	87.7 µM	28.3 µM	15 µM
COc1ccc(S(=O)(=O)Nc2noc3cc(CO)ccc23)c(OC)c1 [Example 167]	32.2 µM	6.85 µM	8.67 µM
COc1cccc(OC)c1S(=O)(=O)Nc1noc2cc(-c3ccccn3)c(C)cc12 [Example 241, 2,6-Dimethoxy-N-(5-methyl-6-(pyridin-2-yl)benzo[d]isoxazol-3-yl)benzenesulfonamide]	26.3 µM	2.51 µM	0.157 µM
COc1cccc2onc(NS(=O)(=O)c3cccc4c(C)ccnc34)c12 [Example 79, N-(4-methoxybenzo[d]isoxazol-3-yl)-4-methyl quinoline-8-sulfonamide]	17.5 µM	4.06 µM	13.9 µM
O=S(=O)(Nc1noc2ccccc12)c1ccc2ccccc2c1 [Example 66, N-(benzo[d]isoxazol-3-yl)naphthalene-2-sulfonamide]	123 µM	114 µM	14.6 µM
CCc1ccc(OC)c(S(=O)(=O)Nc2noc3cc(-c4ccccn4)ccc23)c1 [Example 140, 5-Ethyl-2-methoxy-N-(6-(pyridin-2-yl)benzo[d]isoxazol-3-yl)benzenesulfonamide]	47.8 µM	9.9 µM	2.26 µM

SMILES	IC50 (TIP60-KAT5)	IC50 (HBO-KAT7)	IC50 (MOZ-KAT6A)
COc1cc(C)cc(C)c1S(=O)(=O)Nc1noc2cccc(OC)c12 [Example 72, 2-methoxy-N-(4-methoxybenzo[d]isoxazol-3-yl)-4,6-dimethylbenzene sulfonamide]	> 125 µM	11.4 µM	46.2 µM
COc1cccc(OC)c1S(=O)(=O)Nc1noc2cc(-n3nc(C)cc3C)ccc12 [Example 105]	> 125 µM	63.2 µM	2.9 µM
O=S(=O)(Nc1noc2cccc(Cl)c12)c1ccc2nc(O)oc2c1 [Example 8, N-(4-chlorobenzo [d]isoxazol-3-yl)-2-hydroxybenzo[d]oxazole-6-sulfonamide]	> 125 µM	> 125 µM	113 µM
COC(=O)c1ccccc1S(=O)(=O)Nc1noc2cccc(Cl)c12 [Example 12, methyl 2-(N-(4-chlorobenzo[d]isoxazol-3-yl)sulfamoyl)benzoate]	> 125 µM	49.9 µM	> 125 µM
CC(C)(C)c1ccc(S(=O)(=O)Nc2noc3cccc(Cl)c23)cc1 [Example 25, 4-(tert-butyl)-N-(4-chlorobenzo[d]isoxazol-3-yl)benzenesulfonamide]	120 µM	41.9 µM	33.2 µM
O=S(=O)(Nc1noc2cccc(Cl)c12)c1ccc(OC(F)F)cc1 [Example 34, N-(4-chlorobenzo [d]isoxazol-3-yl)-4-(difluoromethoxy) benzenesulfonamide]	> 125 µM	31.5 µM	> 125 µM
CCc1ccc(CC)c(S(=O)(=O)Nc2noc3ccccc23)c1 [Example 56, N-(benzo[d]isoxazol-3-yl)-2,5-diethylbenzene sulfonamide]	> 125 µM	> 125 µM	72.8 µM
CCc1ccc(OC)c(S(=O)(=O)Nc2noc3ccc(Br)cc23)c1 [Example 135]	4.79 µM	1.43 µM	0.563 µM
Cc1c(Cl)cccc1S(=O)(=O)Nc1noc2ccccc12 [Example 59, N-(benzo[d]isoxazol-3-yl)-3-chloro-2-methylbenzene-sulfonamide]	> 125 µM	> 125 µM	49.4 µM
CCc1ccc(OC)c(S(=O)(=O)Nc2noc3ccc(CNC(=O)OC)cc23)c1 [Example 227, Methyl ((3-((5-ethyl-2-methoxyphenyl)sulfonamido)benzo[d]isoxazol-5-yl)methyl) carbamate]	> 125 µM	63.1 µM	41.5 µM
O=S(=O)(Nc1noc2cccc(Cl)c12)c1ccc(Br)cc1OC(F)(F)F [Example 32, 4-bromo-N-(4-chlorobenzo[d]isoxazol-3-yl)-2-(trifluoromethoxy) benzenesulfonamide]	56 µM	14.9 µM	31.1 µM
COc1cccc2onc(NS(=O)(=O)c3ccccc3)c12 [Example 90, N-(4-Methoxybenzo[d]isoxazol-3-yl)benzenesulfonamide]	90.7 µM	18.9 µM	4.78 µM
CCc1ccc(OC)c(S(=O)(=O)Nc2noc3cc(C4CC4)ccc23)c1 [Example 195]	16.7 µM	4.96 µM	1.32 µM
COc1cccc(OCC2CC2)c1S(=O)(=O)Nc1noc2cccc(OC)c12 [Example 215, 2-(Cyclopropylmethoxy)-6-methoxy-N-(4-methoxybenzo[d]isoxazol-3-yl)benzenesulfonamide]	> 125 µM	16.6 µM	4.47 µM
COc1ccccc1S(=O)(=O)Nc1noc2cc(Cl)ccc12 [Example 158]	> 125 µM	44.9 µM	62.6 µM
O=S(=O)(Nc1noc2cccc(Cl)c12)c1ccc(OCc2ccccc2)cc1 [Example 9, 4-(benzyloxy)-N-(4-chlorobenzo[d]isoxazol-3-yl)benzenesulfonamide]	41 µM	8.42 µM	26.8 µM
CCc1ccc(OC)c(S(=O)(=O)Nc2noc3cc(-c4cnn(C)c4)ccc23)c1 [Example 196, 5-Ethyl-2-methoxy-N-(6-(1-methyl-1H-pyrazol-4-yl)benzo[d]isoxazol-3-yl)benzenesulfonamide]	95.4 µM	23.3 µM	13.9 µM
CCc1ccc(OC)c(S(=O)(=O)Nc2noc3cc(-c4cncnc4)ccc23)c1 [Example 197, 5-Ethyl-2-methoxy-N-(6-(pyrimidin-5-yl)benzo[d]isoxazol-3-yl)benzenesulfonamide]	> 125 µM	45.7 µM	21 µM
COc1ccc(C(C)C)cc1S(=O)(=O)Nc1noc2cccc(Cl)c12 [Example 41, N-(4-chlorobenzo [d]isoxazol-3-yl)-5-isopropyl-2-methoxybenzene sulfonamide]	65.1 µM	11.8 µM	4.27 µM
